According to ChEMBL document CHEMBL4376810, “Bioactive Secondary Metabolites from Bacillus subtilis: A Comprehensive Review” (2019):
≈ marks a conversion by molar mass, not a printed value. Non-standard residues stand in square brackets, D forms with d. Residues, ends and D or L forms follow the SMILES beside them. *: point of attachment. Tridecanoyl(3R-OH,11-Me) = CCC(C)CCCCCCC[C@@H](O)CC(=O)*; X1 = CCC(C)CC(C)CCCCC[C@@H](O)CC(=O)*

What was measured:
Salmonella typhimurium = test: Antibacterial activity against Salmonella typhimurium incubated for 18 hrs by agar dilution assay; type: functional, Salmonella enterica subsp. enterica serovar Typhimurium; conditions: Salmonella enterica
Morganella morganii = test: Antibacterial activity against streptomycin-resistant Morganella morganii incubated for 18 hrs by agar dilution assay; type: functional
Staphylococcus aureus [1] = test: Antibacterial activity against methicillin-resistant Staphylococcus aureus incubated for 18 hrs by agar dilution assay; type: functional
Micrococcus luteus = test: Antibacterial activity against Micrococcus luteus incubated for 24 hrs by broth microdilution method; type: functional
Staphylococcus aureus [2] = test: Antibacterial activity against methicillin-resistant Staphylococcus aureus incubated for 24 hrs by broth microdilution method; type: functional
Bacillus pumilus = test: Antibacterial activity against Bacillus pumilus incubated for 24 hrs by broth microdilution method; type: functional
Rhizoctonia solani = test: Antifungal activity against Rhizoctonia solani assessed as inhibition of fungal growth incubated for 48 hrs by standard broth dilution assay; type: functional
Colletotrichum acutatum = test: Antifungal activity against Colletotrichum acutatum assessed as inhibition of fungal growth incubated for 48 hrs by standard broth dilution assay; type: functional
Botrytis cinerea = test: Antifungal activity against Botrytis cinerea assessed as inhibition of fungal growth incubated for 48 hrs by standard broth dilution assay; type: functional
Staphylococcus aureus [3] = test: Antibacterial activity against methicillin-resistant Staphylococcus aureus; type: functional
Staphylococcus aureus [4] = test: Antibacterial activity against Staphylococcus aureus; type: functional
Staphylococcus aureus [5] = test: Antibacterial activity against oxacillin-resistant Staphylococcus aureus by broth microdilution method; type: functional
[6] = test system: Staphylococcus epidermidis; test: Antibacterial activity against Staphylococcus epidermidis by broth microdilution method; type: functional
Streptococcus pneumoniae = test: Antibacterial activity against Streptococcus pneumoniae by broth microdilution method; type: functional

Work on C=C/C=C(\C)CCC1CCC/C=C\C=C(\C)C(OP(=O)(O)O)CCC\C=C/C=C\C=C\C=C\CC(C)C(=C)CC(=O)O1 (stereo not drawn) yielded an MIC (Salmonella typhimurium) of 2 to 32 mg/L (≈ 3.34 to 53.4 µM), an MIC (Morganella morganii) of 2 to 32 mg/L (≈ 3.34 to 53.4 µM) and an MIC (Staphylococcus aureus [1]) of 2 to 32 mg/L (≈ 3.34 to 53.4 µM).
For CC1=CC2C(OC3OC(C)C(O)C(=O)C3O)CCCC2C2C(=O)OC(=O)/C(C)=C3/CC(O)C/C3=C/2C1/C=C/C=C/C=C(\C)CC(C)CC(O)C(C)C(=O)O (stereo not drawn), the MIC (Micrococcus luteus) was < 7 mg/L, the MIC (Staphylococcus aureus [2]) was < 7 mg/L and the MIC (Bacillus pumilus) was < 7 mg/L.
CCC(C)CCCCCCC[C@@H](O)CC(=O)N[C@@H](CCC(=O)O)C(=O)N[C@@H](CC(C)C)C(=O)N[C@@H](CC(C)C)C(=O)N[C@@H](C(=O)N[C@@H](CC(=O)O)C(=O)N[C@@H](CC(C)C)C(=O)N[C@@H](CC(C)C)C(=O)O)C(C)C (stereo partly drawn) ({Tridecanoyl(3R-OH,11-Me)}-ELL[dV]DLL-OH) gave an MIC (Rhizoctonia solani) of 4 to 8 mg/L (≈ 3.84 to 7.69 µM), an MIC (Colletotrichum acutatum) of 4 to 8 mg/L (≈ 3.84 to 7.69 µM) and an MIC (Botrytis cinerea) of 4 to 8 mg/L (≈ 3.84 to 7.69 µM).
CCC(C)CC(C)CCCCC[C@@H](O)CC(=O)N[C@@H](CCC(=O)O)C(=O)N[C@@H](CC(C)C)C(=O)N[C@@H](CC(C)C)C(=O)N[C@@H](C(=O)N[C@@H](CC(=O)O)C(=O)N[C@@H](CC(C)C)C(=O)N[C@@H](CC(C)C)C(=O)O)C(C)C (stereo partly drawn) (X1-ELL[dV]DLL-OH) showed an MIC (Rhizoctonia solani) of 4 to 8 mg/L (≈ 3.79 to 7.59 µM), an MIC (Colletotrichum acutatum) of 4 to 8 mg/L (≈ 3.79 to 7.59 µM) and an MIC (Botrytis cinerea) of 4 to 8 mg/L (≈ 3.79 to 7.59 µM).
CCCCCCCCCCCC(=O)N[C@@H]1C(=O)N[C@H](CCC(N)=O)C(=O)N[C@@H](CC(=O)O)C(=O)NCC(=O)N[C@@H](CC(N)=O)C(=O)N[C@@H](CC(=O)O)C(=O)NCC(=O)N[C@@H](Cc2ccc(O)cc2)C(=O)N[C@@H](C(C)C)C(=O)OC1C (stereo partly drawn) showed an MIC (Staphylococcus aureus [3]) of 20 mg/L (≈ 17.7 µM).
For C=C/C=C(\C)CCC1CCC/C=C\C=C(\C)C(OP(=O)(O)O)CCC\C=C/C=C\C=C\C=C\C(O)C(C)C(=C)CC(=O)O1 (stereo not drawn), the MIC (Salmonella typhimurium) was 2 to 32 mg/L (≈ 3.25 to 52.1 µM), the MIC (Morganella morganii) was 2 to 32 mg/L (≈ 3.25 to 52.1 µM) and the MIC (Staphylococcus aureus [1]) was 2 to 32 mg/L (≈ 3.25 to 52.1 µM).
CCCCCCCCCCCCC(=O)N[C@@H]1C(=O)N[C@H](CCC(N)=O)C(=O)N[C@@H](CC(=O)O)C(=O)NCC(=O)N[C@@H](CC(N)=O)C(=O)N[C@@H](CC(=O)O)C(=O)NCC(=O)N[C@@H](Cc2ccc(O)cc2)C(=O)N[C@@H](C(C)C)C(=O)OC1C (stereo partly drawn) showed an MIC (Staphylococcus aureus [3]) of 20 mg/L (≈ 17.4 µM).
In the case of CC1=CC2C(OC3OC(C)C(O)C(O)C3O)CCCC2C2C(=O)OC(=O)/C(C)=C3/CC(O)C/C3=C/2C1/C=C/C=C/C=C(\C)CC(C)CC(O)C(C)C(=O)O (stereo not drawn), the MIC (Micrococcus luteus) is reported as < 7 mg/L, the MIC (Staphylococcus aureus [2]) is reported as < 7 mg/L and the MIC (Bacillus pumilus) is reported as < 7 mg/L.
For CCCCCCCCCCCCCC(=O)N[C@@H]1C(=O)N[C@H](CCC(N)=O)C(=O)N[C@@H](CC(=O)O)C(=O)NCC(=O)N[C@@H](CC(N)=O)C(=O)N[C@@H](CC(=O)O)C(=O)NCC(=O)N[C@@H](Cc2ccc(O)cc2)C(=O)N[C@@H](C(C)C)C(=O)OC1C (stereo partly drawn), the MIC (Staphylococcus aureus [3]) was 20 mg/L (≈ 17.2 µM).
In the case of CC1=CC2C(OC3OC(C)C(O)C(=O)C3O)CCCC2C2C(=O)OC(=O)/C=C3/CC(O)C/C3=C/2C1/C=C/C=C/C=C(\C)CC(C)CC(O)C(C)C(=O)O (stereo not drawn), the MIC (Micrococcus luteus) is reported as < 7 mg/L, the MIC (Staphylococcus aureus [2]) is reported as < 7 mg/L and the MIC (Bacillus pumilus) is reported as < 7 mg/L.
For CC(C)C[C@H](NC(=O)[C@@H](O)[C@@H](O)[C@@H](N)CC(N)=O)[C@@H]1Cc2cccc(O)c2C(=O)O1, the MIC (Staphylococcus aureus [4]) was < 1 mg/L.
With CC(C)C[C@H](NC(=O)[C@H]1OCN[C@@H](CC(N)=O)[C@@H]1O)[C@@H]1Cc2cccc(O)c2C(=O)O1 the MIC (Staphylococcus aureus [5]) was 0.5 to 2 mg/L (≈ 1.15 to 4.59 µM), the MIC [6] was 0.5 to 2 mg/L (≈ 1.15 to 4.59 µM) and the MIC (Streptococcus pneumoniae) was 0.5 to 2 mg/L (≈ 1.15 to 4.59 µM).
